Columns and labels:
[1] = system: ECHCG (Echinochloa crusgalli, barnyardgrass); experiment: Postemergence foliar-applied mixtures, direct seeded rice, greenhouse; format: in vivo, Echinochloa crusgalli (L.) Beauv.
Method: Seeds or nutlets of the desired test plant species were planted in a soil matrix prepared by mixing a loam or sandy loam soil (e.g., 28.6 percent silt, 18.8 percent clay, and 52.6 percent sand, with a pH of about 5.8 and an organic matter content of about 1.8 percent) and calcareous grit in an 80 to 20 ratio. The soil matrix was contained in plastic pots with a volume of 1 quart and a surface area of 83.6 square centimeters (cm^2). […] The plants were grown for 8-22 days in a greenhouse with an approximate 14 h photoperiod which was maintained at about 29° C. during the day and 26° C. during the night. Nutrients (Peters Excel® 15-5-15 5-Ca 2-Mg and iron chelate) were applied in the irrigation solution as needed and water was added on a regular basis. Supplemental lighting was provided with overhead metal halide 1000-Watt lamps as necessary. The plants were employed for testing when they reached the first through fourth true leaf stage.
(§1) Treatments consisted of the acid or esters of 4-amino-3-chloro-5-fluoro-6-(4-chloro-2-fluoro-3-methoxy-phenyl) pyridine-2-carboxylic acid (Compound A), each formulated as an SC (suspension concentrate), and various herbicidal components alone and in combination. Forms of compound A were applied on an acid equivalent basis.
(§2) Other herbicidal components were applied on an active ingredient basis and included Photosystem II (PSII)-inhibiting herbicides propanil formulated as Stam® M4 EC, bentazon-sodium formulated as Basagran®, atrazine formulated as Atrazine 90 WDG, bromoxynil octanoate ester formulated as Buctril®, simetryne (technical grade material), simazine formulated as Princep® Caliber 90, ioxynil (technical grade material), cyanazine (technical grade material), and hexazinone (technical grade material).
(§3) For treatments comprised of formulated compounds, measured amounts of compounds were placed individually in 25 mL glass vials and diluted in a volume of 1.25% (v/v) Agri-Dex® crop oil concentrated to obtain 12× stock solutions. […] Application solutions were prepared by adding an appropriate amount of each stock solution (e.g., 1 mL) and diluted to the appropriate final concentrations with the addition of 10 mL of an aqueous mixture of 1.25% (v/v) crop oil concentrate so that the final spray solutions contained 1.25+/−0.05% (v/v) crop oil concentrate.
(§4) For treatments comprised of technical compounds, weighed amounts can be placed individually in 25 mL glass vials and dissolved in a volume of 97:3 v/v acetone/DMSO to obtain 12× stock solutions. […] Application solutions can be prepared by adding an appropriate amount of each stock solution (e.g., 1 mL) and diluted to the appropriate final concentrations with the addition of 10 mL of an aqueous mixture of 1.5% (v/v) crop oil concentrate so that the final spray solutions contain 1.25% (v/v) crop oil concentrate. When technical materials are used, the concentrated stock solutions can be added to the spray solutions so that the final acetone and DMSO concentrations of the application solutions are 16.2% and 0.5%, respectively.
For treatments comprised of formulated and technical compounds, weighed amounts of the technical materials were placed individually in 25 mL glass vials and dissolved in a volume of 97:3 v/v acetone/DMSO to obtain 12× stock solutions, and measured amounts of the formulated compounds were placed individually in 25 mL glass vials and diluted in a volume of 1.5% (v/v) crop oil concentrate or water to obtain 12× stock solutions. […] Application solutions were prepared by adding an appropriate amount of each stock solution (eg, 1 mL) and diluted to the appropriate final concentrations with the addition of an appropriate amount of an aqueous mixture of 1.5% (v/v) crop oil concentrate so that the final spray solutions contained 1.25% (v/v) crop oil concentrate.

[2] = system: BRAPP (Brachiaria platyphylla, broadleaf signalgrass); experiment: as above; format: in vivo, Brachiaria platyphylla (Griseb.) Nash
From the text: Seeds or nutlets of the desired test plant species were planted in a soil matrix prepared by mixing a loam or sandy loam soil (e.g., 28.6 percent silt, 18.8 percent clay, and 52.6 percent sand, with a pH of about 5.8 and an organic matter content of about 1.8 percent) and calcareous grit in an 80 to 20 ratio. The soil matrix was contained in plastic pots with a volume of 1 quart and a surface area of 83.6 square centimeters (cm^2). When required to ensure good germination and healthy plants, a fungicide treatment and/or other chemical or physical treatment was applied. The plants were grown for 8-22 days in a greenhouse with an approximate 14 h photoperiod which was maintained at about 29° C. during the day and 26° C. during the night. Nutrients (Peters Excel® 15-5-15 5-Ca 2-Mg and iron chelate) were applied in the irrigation solution as needed and water was added on a regular basis. Supplemental lighting was provided with overhead metal halide 1000-Watt lamps as necessary. The plants were employed for testing when they reached the first through fourth true leaf stage.
as §1, §2
Treatment requirements were calculated based upon the rates being tested, the concentration of active ingredient or acid equivalent in the formulation, and a 12 mL application volume at a rate of 187 L/ha.
as §3, §4
For treatments comprised of formulated and technical compounds, weighed amounts of the technical materials were placed individually in 25 mL glass vials and dissolved in a volume of 97:3 v/v acetone/DMSO to obtain 12× stock solutions, and measured amounts of the formulated compounds were placed individually in 25 mL glass vials and diluted in a volume of 1.5% (v/v) crop oil concentrate or water to obtain 12× stock solutions. […]

COc1c(Cl)ccc(-c2nc(C(=O)OCc3ccccc3)c(Cl)c(N)c2F)c1F [Compound A Benzyl Ester, benzyl ester of 4-amino-3-chloro-5-fluoro-6-(4-chloro-2-fluoro-3-methoxy-phenyl)pyridine-2-carboxylic acid]
Visual Weed Control (%) Obs ([1]; 4.38 g ae/ha, 21 DAA): 48% | Visual Weed Control (%) Obs ([1]; 8 g ae/ha, 20 DAA): 70% | Visual Weed Control (%) Obs ([1]; 8 g ae/ha, 21 DAA): 45% | Visual Weed Control (%) Obs ([1]; 8 g ae/ha, 22 DAA): 35% | Visual Weed Control (%) Obs ([1]; 8.75 g ae/ha, 21 DAA): 55% | Visual Weed Control (%) Obs ([1]; 16 g ae/ha, 20 DAA): 90% | Visual Weed Control (%) Obs ([1]; 16 g ae/ha, 21 DAA): 85% | Visual Weed Control (%) Obs ([1]; 16 g ae/ha, 22 DAA): 65% | Visual Weed Control (%) Obs ([1]; 17.5 g ae/ha, 21 DAA): 85% | Visual Weed Control (%) Obs ([1]; 32 g ae/ha, 20 DAA): 90% | Visual Weed Control (%) Obs ([1]; 32 g ae/ha, 21 DAA): 90% | Visual Weed Control (%) Obs ([1]; 32 g ae/ha, 22 DAA): 80% | Visual Weed Control (%) Obs ([2]; 4.38 g ae/ha, 22 DAA): 55% | Visual Weed Control (%) Obs ([2]; 8 g ae/ha, 20 DAA): 55% | Visual Weed Control (%) Obs ([2]; 8.75 g ae/ha, 22 DAA): 70% | Visual Weed Control (%) Obs ([2]; 16 g ae/ha, 20 DAA): 90% | Visual Weed Control (%) Obs ([2]; 17.5 g ae/ha, 22 DAA): 75% | Visual Weed Control (%) Obs ([2]; 32 g ae/ha, 20 DAA): 90%

CCC(=O)Nc1ccc(Cl)c(Cl)c1 [Propanil, N-(3,4-dichlorophenyl)propanamide, reference compound]
Visual Weed Control (%) Obs ([1]; 420 g ai/ha, 21 DAA): 10% | Visual Weed Control (%) Obs ([1]; 840 g ai/ha, 21 DAA): 10% | Visual Weed Control (%) Obs ([1]; 1680 g ai/ha, 21 DAA): 40%

COc1c(Cl)ccc(-c2nc(C(=O)O)c(Cl)c(N)c2F)c1F [Compound A Acid, 4-amino-3-chloro-6-(4-chloro-2-fluoro-3-methoxyphenyl)-5-fluoropyridine-2-carboxylic acid]
Visual Weed Control (%) Obs ([1]; 4.38 g ae/ha, 21 DAA): 33% | Visual Weed Control (%) Obs ([1]; 4.38 g ae/ha, 22 DAA): 20% | Visual Weed Control (%) Obs ([1]; 8.75 g ae/ha, 21 DAA): 55% | Visual Weed Control (%) Obs ([2]; 4.38 g ae/ha, 22 DAA): 45% | Visual Weed Control (%) Obs ([2]; 8.75 g ae/ha, 22 DAA): 70%

CCNc1nc(Cl)nc(NCC)n1 [Simazine, 6-chloro-N,N′-diethyl-1,3,5-triazine-2,4-diamine, reference compound]
Visual Weed Control (%) Obs ([1]; 560 g ai/ha, 20 DAA): 0% | Visual Weed Control (%) Obs ([1]; 1120 g ai/ha, 20 DAA): 0% | Visual Weed Control (%) Obs ([1]; 2240 g ai/ha, 20 DAA): 0% | Visual Weed Control (%) Obs ([2]; 560 g ai/ha, 20 DAA): 0% | Visual Weed Control (%) Obs ([2]; 1120 g ai/ha, 20 DAA): 0% | Visual Weed Control (%) Obs ([2]; 2240 g ai/ha, 20 DAA): 0%

CCNc1nc(Cl)nc(NC(C)C)n1 [Atrazine, 6-chloro-N-ethyl-N′-(1-methylethyl)-1,3,5-triazine-2,4-diamine, reference compound]
Visual Weed Control (%) Obs ([1]; 280 g ai/ha, 22 DAA): 0% | Visual Weed Control (%) Obs ([1]; 560 g ai/ha, 22 DAA): 20% | Visual Weed Control (%) Obs ([1]; 1120 g ai/ha, 22 DAA): 70% | Visual Weed Control (%) Obs ([2]; 280 g ai/ha, 22 DAA): 0% | Visual Weed Control (%) Obs ([2]; 560 g ai/ha, 22 DAA): 0%
